For series [1] the following is noted: in vivo; cited from earlier work.
The conditions of series [2]: 10 g/L, 25° C. (77° F.); cited from earlier work.
The subject of series [3] is patients with oral mucositis pain/lesions. As to the kind of experiment: Additional patients assessed after methylene blue oral rinse at 0.025%, 0.05% and 0.1% (Table 2).

For `CN(C)c1ccc2nc3ccc(=[N+](C)C)cc-3sc2c1` [methylene blue], in series [1], the blood-brain barrier passage entry was “crosses the blood-brain barrier”. Also, the pH in water in series [2] was 3. Besides, the analgesia result in series [3] (0.05-0.1% methylene blue as a mouth rinse, almost all patients) is “sustained analgesia over a few days to several months”. The entries for the “onset (of MB effect)” value in series [3] (MB 0.025% oral rinse) and in series [3] (MB 0.05% oral rinse) were 2 D and 1 W, respectively. For the same molecule, in series [3] (mouth rinse, case series), the tolerability entry is “tolerated well”.
